Assay results published in patent publication US20210077668A1, “Highly Adherent Polymers for Orthopedic Device Coatings” (Clemson University Research Foundation, priority 2018, published 2021).

Columns and labels:
Type in all cases: cell-based
S. aureus [1] = assay: Maximum concentration of bacteria inactivated in the presence of 1 cm pieces of K-wires
Method: Control K-wires were coated with monolaurin (ML), a natural antimicrobial agent active against S. aureus. Sample K-wires were coated with a copolymer formed from 20 mole percent glycidyl methacrylate, 60 mole percent ethylene glycol methacrylate and 20 mole percent ethylene glycol methacrylate available as OEGMA 950 from Sigma Aldrich. Some of the K-wires were pulled through Septa™, to simulate surgical insertion, and the antimicrobial activity was measured. Each example was replicated nine times.

S. aureus [2] = assay: Bacteria count versus time with coated K-wires (FIG. 1)
Method: Additional tests were done wherein bacterial count was monitored versus time for different bacteria. In FIG. 1 the bacteria count was measured for S. aureus versus time. The K-wire alone as a control was ineffective as expected.

[3] = system: Methicillin-Resistant Staphylococcus Aureus (MRSA); assay: Bacteria count versus time with coated K-wires (FIG. 2)
S. aureus biofilms [4] = assay: Effectiveness against biofilms, K-wires incubated in S. aureus for 48 hours (FIG. 4); conditions: S. aureus 48 hours
Method: Effectiveness of the inventive examples against biofilms was determined. Samples were prepared including a control K-wire (Control), a K-wire coated with ML only but not passed through a Septa™ (ML Coated), a sample treated with ML and passed through a Septa™ (ML Coated Septa), and inventive examples comprising ML with polymer, using OEGMA as the hydrophilic moiety (ML/POEGMA). Some of the inventive samples were passed through a Septa™ (ML/POEGMA Septa). The samples were all incubated in S. aureus for 48 hours. The results are provided graphically in FIG. 4.

S. aureus biofilms [5] = assay: S. aureus biofilm formation on 1 cm K-wire pieces, 48 hours (Example 3)
Method: The performance of Copolymer A was compared to poly(lactide-co-glycolide) PLGA) with monolaurin as a model antimicrobial additive. S. aureus biofilms were grown by statically incubating a S. Aureus suspension with 1 cm K-wire pieces for 48 hours.

Question: Which “Maximum concentration of bacteria inactivated in the presence of 1 cm pieced of K-wires” value (from here on “Maximum concentration”) (S. aureus [1]; No Polymer after Septa, ML 1 mg/ml) does the source give for `CCCCCCCCCCCC(=O)OCC(O)CO` (centres unmarked) [ML, monolaurin] here?
Answer: The value was 0.

Question: What about the “Maximum concentration” value (S. aureus [1]; No Polymer after Septa, ML 3 mg/ml) of the same compound?
Answer: The value was 0.

Question: What about the “Maximum concentration” value (S. aureus [1]; No Polymer after Septa, ML 5 mg/ml) of the same compound?
Answer: The value was 0.

Question: What about the “Maximum concentration” value (S. aureus [1]; No Polymer after Septa, ML 10 mg/ml) of the same compound?
Answer: The value was 0.

Question: And the “Maximum concentration” value (S. aureus [1]; No Polymer, no Septa, ML 1 mg/ml)?
Answer: Its value is ~6 × 10^6.

Question: And the “Maximum concentration” value (S. aureus [1]; No Polymer, no Septa, ML 3 mg/ml)?
Answer: Its value is ~7 × 10^6.

Question: What about the “Maximum concentration” value (S. aureus [1]; No Polymer, no Septa, ML 5 mg/ml) of the same compound?
Answer: Its value is ~6 × 10^6.

Question: And the “Maximum concentration” value (S. aureus [1]; No Polymer, no Septa, ML 10 mg/ml)?
Answer: The value was ~8 × 10^6.

Question: And the “bacteria count versus time (course)” value (S. aureus [2])?
Answer: The value was “immediate decrease in bacteria due to essentially immediate release of ML, however, the activity was not sustained”.

Question: And the “bacteria count versus time (course)” value [3]?
Answer: The value was “results similar to those observed for S. aureus”.

Question: And the effectiveness against biofilms (S. aureus biofilms [4]; not passed through a Septa)?
Answer: The effectiveness against biofilms was “effective resistance”.

Question: And the effectiveness against biofilms (S. aureus biofilms [4]; passed through a Septa)?
Answer: The effectiveness against biofilms was “removed or otherwise rendered ineffective”.

Question: What about the “antimicrobial activity against biofilm formation” value (S. aureus biofilms [5]; after pulling the wires through silicon rubber Septa caps) of the same compound?
Answer: The value was “lost the antimicrobial activity”.

Question: What about the “prevention of biofilm formation” value (S. aureus biofilms [5]; before pulling through Septa, S. aureus 48 hours) of the same compound?
Answer: Its value is “efficient in preventing biofilm formation”.
